# Several values for one entry are separate records, joined by “and”; a condition that tells them apart may be missing. Equal values may be shown once. Where a name gives a salt, the structure may show the parent alone.
# Columns and labels:
# [1] = Anti-solvent precipitation: DMF or DMSO solution added to water; type: physicochemical
# Description: The following techniques were tried but were not successful in the preparation of amorphous material: • i) Crash cooling freeze drying. […] Instead, solutions were formed which became dark within 4 hours, signifying degradation
# [2] = Psilocin-d10 pharmacokinetics study in dogs following oral gavage and intravenous (bolus) administrations
# [3] = Stability of amorphous form from melt/crash cooling on standing; type: physicochemical; settings: amorphous free base
# [4] = Pharmacokinetics of psilocin-d10 and psilocybin in male beagle dog, powder in capsule (PIC) or orally disintegrating tablet (ODT)
# [5] = Psilocin-d0/psilocin-d10 and psilocybin PK comparative study in rats (oral gavage, intravenous bolus; plasma and brain); settings: for oral bioavailability: co-dosing of PI-d0 and PI-d10
# [6] = Maturation in 12 different solvents with thermal cycling (XRPD); type: physicochemical; settings: thermal cycling room temperature/50° C., 3 days
# Description: The resulting slurries were subjected to maturation with thermal cycling between room temperature and 50° C. (4 hours at each condition) for 3 days. Solids were then analysed by XRPD.
# [7] = Stability studies in acid solutions (PI salt solutions); type: physicochemical; settings: 40° C.
# Text: Ascorbic acid (AsA), acetic acid (AcA), tartaric acid (TA), fumaric acid (FA), citric acid (CA), malic acid (MA), benzenesulfonic acid (BSA), stearic acid (SA), sodium citrate dihydrate, monosodium phosphate hydrate, disodium phosphate were purchased from Sigma Aldrich. Aluminum (III) chloride (AlCl3) and iron (III) chloride (FeCl3) were purchased from Sigma Aldrich. Antioxidants, i.e., ethylenediaminetetraacetic acid (EDTA), ascorbic acid (AsA), L-cysteine (Cys), sodium metabisulfite (NamBiSO3) and propyl gallate (PG) were purchased from Sigma Aldrich. Hydroxypropyl-β-cyclodextrin (CAVASOL® W7 HP, CAVITRON® W7 HP7) and methyl-β-cyclodextrin (CAVASOL® W7 M) were provided by DuPont.
# The following chromatographic conditions were used:
# Diluent. The diluent used in the below studies was prepared as follows: 100 mL of acetonitrile (ACN) was mixed with 800 mL of water and 100 mL of 1.0 M citric acid and mixed well to prepare 1 L of diluent.
# The stability of psilocin in 0.1 M solutions of various acids was tested.
# Test solutions: To prepare the test solutions, 0.1 M solutions of AsA, AcA, TA, FA, CA, MA, BSA, and SA were prepared in DI water.
# [8] = Stability studies in citric acid solution
# [9] = Stability studies with antioxidants; settings: EDTA, ascorbic acid, L-cysteine, sodium metabisulfite, propyl gallate; 40° C.
# [10] = Stability studies with cyclodextrin complexes; settings: 40° C., with or without metal salts
# [11] = Stability studies in sodium citrate buffer; type: physicochemical
# Description: (§1) Preparation of 0.1 M sodium citrate buffer (pH 6.01): 2.427 g of sodium citrate dihydrate and 0.336 g of citric acid were dissolved in 80 ml of DI water. The pH was adjusted to 6.0 using a 1 M NaOH solution. The final volume was adjusted to 100 ml.
# [12] = Long term stability studies with citric acid and sodium citrate buffer; type: physicochemical
# Description: The long-term stability (up to 25 days) of psilocin in a citric acid solution (0.1 M, pH 1.60) and a sodium citrate buffer (0.1 M, pH 6.01) at 4° C. and 23° C. was assessed.
# as §1
# Test solutions: Psilocin (1 mg/ml) was mixed with (i) sodium citrate buffer (0.1 M, pH 6.01) and (ii) citric acid solution (0.1 M, pH 1.60) in 1:1 v/v. The samples were stored at 4° C. and 23° C., and aliquots were sampled at designated timepoints (days 0, 7, 17, and 25).
# [13] = Observation of freeze dried salt; type: physicochemical; settings: freeze dried from 1,4-dioxane
# [14] = female dog plasma, single intravenous (bolus) 0.20 mg/kg, Mean, N=3
# [15] = female dog plasma, single intravenous (bolus) 0.20 mg/kg, Median, N=3
# [16] = female dog plasma, single intravenous (bolus) 0.20 mg/kg, individual animals 60F, 61F, 723F, listed as Psilocin-d10, 0.2 mg/kg
# [17] = female dog plasma, single oral (gavage) 1.00 mg/kg, Median, N=3
# [18] = female dog plasma, single oral (gavage) 1.00 mg/kg, individual animals 60F, 61F, 723F, listed as Psilocin-d10, 1 mg/kg
# [19] = ODT, psilocin-d10 dosed 5 mg (nominal 0.5 mg/kg), analyte psilocin-d10, male beagle dog plasma, Mean
# [20] = PIC, psilocin-d10 dosed 5 mg (nominal 0.5 mg/kg), analyte psilocin-d10, male beagle dog plasma, Mean
structure (smiles),measurement,setting,value
"[2H]C([2H])([2H])N(C([2H])([2H])[2H])C([2H])([2H])C([2H])([2H])c1c[nH]c2cccc(O)c12 [Compound I-3, 3-(2-(bis(methyl-d3)amino)ethyl-1,1,2,2-d4)-1H-indol-4-ol]","time until solutions became dark, signifying degradation",[1],≤ 4 h
same,time of last detectable plasma level,"[2]; dogs, oral administration",9 h
same,Cmax,[2]; [14],45.8 ng/mL
same,t1/2,[2]; [14],1.37 h
same,AUC0-inf,[2]; [15],95.8 ng·h/mL
same,AUC0-t,[2]; [15],80.7 ng·h/mL
same,CL,[2]; [15],34.83 mL/min/kg
same,Cmax,[2]; [15],45.9 ng/mL
same,DN Cmax,[2]; [15],230 (ng/mL)/(mg/kg)
same,Vss,[2]; [15],3.96 L/kg
same,AUC0-inf,[2]; [16],95.8 ng·h/mL
same,AUC0-t,[2]; [16],80.7 ng·h/mL
same,CL,[2]; [16],34.83 mL/min/kg
same,Cmax,[2]; [16],45.9 ng/mL and 43.9 ng/mL
same,DN AUC0-inf,[2]; [16],500 (h*ng/mL)/(mg/kg)
same,DN Cmax,[2]; [16],230 (ng/mL)/(mg/kg) and 220 (ng/mL)/(mg/kg)
same,Vss,[2]; [16],3.96 L/kg
same,AUC0-inf,[2]; [17],414 ng·h/mL
same,AUC0-t,[2]; [17],399 ng·h/mL
same,t1/2,[2]; [17],1.80 h
same,AUC0-inf,[2]; [18],426 ng·h/mL and 414 ng·h/mL
same,AUC0-t,[2]; [18],404 ng·h/mL and 399 ng·h/mL
same,Cmax,[2]; [18],126 ng/mL
same,t1/2,[2]; [18],1.80 h and 1.82 h and 1.69 h
same,stability of amorphous form,[3],not stable for prolonged periods
same,AUCINF_obs,[4]; [19],213 ng·h/mL
same,AUClast,[4]; [19],199 ng·h/mL
same,Cl_F_obs,[4]; [19],40.33 mL/min/kg
same,Cmax,[4]; [19],67.2 ng/mL
same,Tmax,[4]; [19],0.542 h
same,Vz_F_obs,[4]; [19],6.9 L/kg
same,AUClast,[4]; [20],181 ng·h/mL
same,Cl_F_obs,[4]; [20],43.5 mL/min/kg
same,Cmax,[4]; [20],60 ng/mL
same,T½,[4]; [20],2.01 h
same,Vz_F_obs,[4]; [20],7.6 L/kg
same,psilocin-d10 exposure compared to psilocin exposure after administration of psilocybin,"[4]; dogs, independent of formulation",twice as high
same,oral bioavailability,[5]; rats,12.1%
"[2H]C([2H])([2H])N(C([2H])([2H])[2H])C([2H])([2H])C([2H])([2H])c1c[nH]c2cccc(O)c12 [Compound I-3j, Benzoate Salt of 3-(2-(bis(methyl-d3)amino)ethyl-1,1,2,2-d4)-1H-indol-4-ol]",crystalline form by XRPD after maturation in 12 solvents,[6],retained their initial crystalline form
"CN(C)CCc1c[nH]c2cccc(O)c12 [Compound I-7, 3-(2-(dimethylamino)ethyl)-1H-indol-4-ol]",solution stability (% psilocin remaining),"[7]; 0.1 M acid solutions, with or without metal salts, up to 24",excellent stability
same,solution stability (% psilocin remaining),"[7]; without acid, within 24 hours",nearly all psilocin being degraded
same,solution stability (% psilocin remaining),"[7]; without acid, with Fe3+ and Al3+ metal ions",significant psilocin degradation
same,psilocin stabilization at 24 hour time point,"[8]; small quantities of citric acid, 40° C., 24 hour",30%
same,solution stability (% psilocin remaining),"[8]; small quantities of citric acid, pH 3.2, 4° C. and 23° C.",greatly enhanced the stability
same,solution stability (% psilocin remaining),"[8]; without citric acid, 4, 23 and 40° C., by 18 hour time point",nearly all psilocin being degraded
same,solution stability (% psilocin remaining),"[8]; without citric acid, with Fe3+ and Al3+ metal ions",significant psilocin degradation
same,stability against metal salts with antioxidants,[9],none of the antioxidants tested were able to provide stability
same,stability with cyclodextrins,[10],did not impart stability
same,solution stability (% psilocin remaining),"[11]; 0.1 M sodium citrate buffer, 4° C. and room temperature",greatly stabilized
same,degradation of psilocin,"[11]; 0.1 M sodium citrate buffer, 40° C.",10-15%
same,effect of metal salts (Fe3+ and Al3+) on psilocin,[11]; in 0.1 M citrate buffer,no detrimental effects
same,solution stability (% psilocin remaining),"[11]; non-citrate buffered, with Fe3+ and Al3+ metal ions",significant psilocin degradation
same,solution stability (% psilocin remaining),"[11]; without sodium citrate buffer, 4, 23, 40° C., by 18 hour time point",nearly all psilocin being degraded
same,long-term solution stability,"[12]; citric acid 0.1 M, pH 1.60, 23° C. and 4° C., 25 days",only minimal degradation
same,time psilocin remained stable,"[12]; sodium citrate buffer pH 6.01, cold storage 4° C.",up to 17 days
same,long-term solution stability,"[12]; sodium citrate buffer pH 6.01, room temperature",degradation of psilocin began within a week
same,oral bioavailability,[5]; rats,7.52%
"CN(C)CCc1c[nH]c2cccc(O)c12 [Compound I-7a, Benzenesulfonate Salt of 3-(2-(dimethylamino)ethyl)-1H-indol-4-ol]",crystalline form by XRPD after maturation in 12 solvents,[6],retained their initial crystalline form
"CN(C)CCc1c[nH]c2cccc(O)c12 [Compound I-7b, Tartrate Salt of 3-(2-(dimethylamino)ethyl)-1H-indol-4-ol]",crystalline form by XRPD after maturation in 12 solvents,[6],retained their initial crystalline form
"CN(C)CCc1c[nH]c2cccc(O)c12 [Compound I-7c, Hemi-Fumarate Salt of 3-(2-(dimethylamino)ethyl)-1H-indol-4-ol]",crystalline form by XRPD after maturation in 12 solvents,[6],complex polymorphism
"CN(C)CCc1c[nH]c2cccc(O)c12 [Compound I-7e, Citrate Salt of 3-(2-(dimethylamino)ethyl)-1H-indol-4-ol]",hygroscopicity of isolated solid,[13],hygroscopic
"CN(C)CCc1c[nH]c2cccc(O)c12 [Compound I-7j, Benzoate Salt of 3-(2-(dimethylamino)ethyl)-1H-indol-4-ol]",crystalline form by XRPD after maturation in 12 solvents,[6],retained their initial crystalline form
CN(C)CCc1c[nH]c2cccc(OP(=O)(O)O)c12 [psilocybin],Tmax,"[5]; rat plasma, Group 3: psilocybin intravenous (bolus) 2.8 mg/kg, label = analyte, IAD = immediately after dosing",IAD
same,brain concentrations compared to plasma,"[5]; rats, after IV dosing",brain concentrations are low

# Source: patent US20260250246A1, “PSILOCYBIN ANALOGS, SALTS, COMPOSITIONS, AND METHODS OF USE” (priority 2021, published 2026)
